Results as given in patent US12195482B1 (Arcus Biosciences, Inc., priority 2022, dated 2025).

Assays:
recombinant human TYRO3 = target: T1, recombinant human TYRO3 (Homo sapiens, UniProt Q06418); assay: Biochemical potency, HTRF KinEASE-TK kinase assay; details: 1 nM TYRO3, 700 μM ATP
T1 construct: purchased Invitrogen
T1 sequence (Q06418 41-890): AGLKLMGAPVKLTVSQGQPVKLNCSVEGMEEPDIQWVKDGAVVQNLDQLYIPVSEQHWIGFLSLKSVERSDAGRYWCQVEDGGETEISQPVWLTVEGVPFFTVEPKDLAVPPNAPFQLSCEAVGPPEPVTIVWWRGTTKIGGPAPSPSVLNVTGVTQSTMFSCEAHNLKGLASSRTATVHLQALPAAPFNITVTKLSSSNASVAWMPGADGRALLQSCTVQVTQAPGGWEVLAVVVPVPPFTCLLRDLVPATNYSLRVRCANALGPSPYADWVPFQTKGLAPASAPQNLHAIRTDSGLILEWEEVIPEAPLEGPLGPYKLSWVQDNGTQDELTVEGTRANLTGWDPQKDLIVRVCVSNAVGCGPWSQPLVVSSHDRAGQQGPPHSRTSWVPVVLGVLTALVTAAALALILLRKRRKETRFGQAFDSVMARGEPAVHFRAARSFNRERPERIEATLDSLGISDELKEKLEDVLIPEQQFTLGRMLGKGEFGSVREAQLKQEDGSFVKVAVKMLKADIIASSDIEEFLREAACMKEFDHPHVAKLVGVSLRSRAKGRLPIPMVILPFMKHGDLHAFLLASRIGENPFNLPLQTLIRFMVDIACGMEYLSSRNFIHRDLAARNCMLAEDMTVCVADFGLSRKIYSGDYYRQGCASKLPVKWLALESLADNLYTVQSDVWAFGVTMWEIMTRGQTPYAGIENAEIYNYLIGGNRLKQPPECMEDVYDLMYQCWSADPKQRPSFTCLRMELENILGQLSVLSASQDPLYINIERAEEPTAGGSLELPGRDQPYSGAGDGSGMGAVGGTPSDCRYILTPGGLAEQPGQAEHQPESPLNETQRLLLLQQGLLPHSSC
Method: (§1) Measurement of Biochemical Compound Potency of Axl Inhibitors
(§2) Purified recombinant human AXL, TYRO3 and MER proteins were purchased from Invitrogen™. 10 nM AXL, 2 nM TYRO3 or MER were incubated with varying concentrations of compounds in 50 mM HEPES, pH 7.4, 10 mM MgCl2, 0.01% BSA, 1 mM DTT and 2% DMSO in a total volume of 20 μl in a 384-well microplate (Corning™ #3640) at RT for 1 h. The AXL, TYRO3 and MER enzymatic reaction was initiated by transferring 10 μl of enzyme and compound mixture into 10 μl of 1.6 μM TK Substrate-biotin (HTRF® KinEASE-TK kit, Cisbio) and 1400 μM ATP pre-incubated in 50 mM HEPES, pH 7.4, 10 mM MgCl2, 0.01% BSA, 1 mM DTT in a 384-well microplate (Corning™ #3640) at RT, giving the final reaction conditions: 5 nM AXL, 1 nM TYRO3 or MER, 800 nM TK Substrate-biotin and 700 μM ATP in 50 mM HEPES, pH 7.4, 10 mM MgCl2, 0.01% BSA, 1 mM DTT and 1% DMSO with varying concentrations of compounds. Following 2 h incubation at RT, the AXL, TYRO3 and MER enzymatic reaction was stopped by transfer of 10 μl of reaction into 10 μl of detection mix (400 nM Streptavidin-XL665, 200-fold dilution TK Antibody-Cryptate and detection buffer, HTRF® KinEASE-TK kit, Cisbio) in a white 384-well microplate (Perkin Elmer, OptiPlate 384). After 1 h incubation at RT, the plate was put into a plate reader (Evision) to read at 665/620 nm (acceptor/donor) for HTRF. The value of the DMSO blank (MIN inhibition=100% activity) was used as a negative control. The positive control was established by adding 5 μl of enzyme and DMSO mixture into 10 μl of detection mix followed by addition of 5 μl of TK Substrate-biotin and ATP mixture (MAX inhibition=0% activity). To calculate the percent activity, Equation 1 was used. Ratio665/620 is the value at a given compound concentration: […]

recombinant human MER = target: T2, recombinant human MER (Homo sapiens, UniProt Q12866); assay: Biochemical potency, HTRF KinEASE-TK kinase assay; details: 1 nM MER, 700 μM ATP
T2 construct: purchased Invitrogen
T2 sequence (Q12866 21-999): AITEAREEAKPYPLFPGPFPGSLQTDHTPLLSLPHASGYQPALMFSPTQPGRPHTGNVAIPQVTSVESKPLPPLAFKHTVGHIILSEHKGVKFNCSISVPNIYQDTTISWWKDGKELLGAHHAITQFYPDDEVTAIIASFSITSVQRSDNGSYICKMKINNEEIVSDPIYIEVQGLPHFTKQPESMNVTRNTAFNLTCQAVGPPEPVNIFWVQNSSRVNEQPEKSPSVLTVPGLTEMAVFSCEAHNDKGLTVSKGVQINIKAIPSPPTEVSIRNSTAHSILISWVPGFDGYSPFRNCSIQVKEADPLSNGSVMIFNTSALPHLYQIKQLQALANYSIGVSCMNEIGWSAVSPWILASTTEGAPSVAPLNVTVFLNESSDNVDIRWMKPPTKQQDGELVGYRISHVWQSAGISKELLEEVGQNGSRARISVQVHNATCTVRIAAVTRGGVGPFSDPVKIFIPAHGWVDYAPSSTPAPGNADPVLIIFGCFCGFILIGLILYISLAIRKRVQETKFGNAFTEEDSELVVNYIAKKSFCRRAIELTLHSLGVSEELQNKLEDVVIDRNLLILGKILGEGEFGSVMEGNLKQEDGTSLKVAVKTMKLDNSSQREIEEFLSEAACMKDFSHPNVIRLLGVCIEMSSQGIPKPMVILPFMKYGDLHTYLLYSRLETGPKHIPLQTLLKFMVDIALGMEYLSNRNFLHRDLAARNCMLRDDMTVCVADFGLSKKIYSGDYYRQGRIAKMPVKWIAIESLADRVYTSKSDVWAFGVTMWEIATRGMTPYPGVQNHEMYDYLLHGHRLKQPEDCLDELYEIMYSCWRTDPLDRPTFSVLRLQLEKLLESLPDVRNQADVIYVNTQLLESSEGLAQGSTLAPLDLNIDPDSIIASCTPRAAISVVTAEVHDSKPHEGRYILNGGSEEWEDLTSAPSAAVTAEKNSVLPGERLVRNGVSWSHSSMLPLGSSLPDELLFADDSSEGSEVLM
Method: as §1, §2

SMILES | IC50 (recombinant human TYRO3) [nM] | IC50 (recombinant human MER) [nM]
CN(C)S(=O)(=O)c1cccnc1-c1ccc(-c2c[nH]c3ncc(-c4ccc5c(c4)CC[C@@H](N4C6COCC4C6)CC5)cc23)cc1 [Example 6, N,N-Dimethyl-2-(4-{5-[(7S)-7-{3-oxa-6-azabicyclo[3.1.1]heptan-6-yl}-6,7,8,9-tetrahydro-5H-benzo[7]annulen-2-yl]-1H-pyrrolo[2,3-b]pyridin-3-yl}phenyl)pyridine-3-sulfonamide] | 100 to 1000 | 100 to 1000
Cc1cccnc1-c1ccc(-c2n[nH]c3ncc(-c4ccc5c(c4)CC[C@@](C)(N4CCC[C@H]4C)CC5)cc23)cc1 [Example 163, 3-Methyl-2-(4-{5-[(7S)-7-methyl-7-[(2R)-2-methylpyrrolidin-1-yl]-6,7,8,9-tetrahydro-5H-benzo[7]annulen-2-yl]-2H-pyrazolo[3,4-b]pyridin-3-yl}phenyl)pyridine] | < 100 | < 100
c1ccc(-n2cc(-c3n[nH]c4ncc(-c5ccc6c(c5)CC[C@@H](N5C7COCC5C7)CC6)cc34)cn2)nc1 [Example 168, 6-[(7S)-2-{3-[1-(Pyridin-2-yl)-1H-pyrazol-4-yl]-1H-pyrazolo[3,4-b]pyridin-5-yl}-6,7,8,9-tetrahydro-5H-benzo[7]annulen-7-yl]-3-oxa-6-azabicyclo[3.1.1]heptane] | 100 to 1000 | 100 to 1000
Cc1ccnc(-c2ccc(-c3n[nH]c4ncc(-c5ccc6c(c5)CC[C@@H](N5C7COCC5C7)CC6)cc34)cc2)c1C [Example 118, 6-[(7S)-2-{3-[4-(3,4-Dimethylpyridin-2-yl)phenyl]-1H-pyrazolo[3,4-b]pyridin-5-yl}-6,7,8,9-tetrahydro-5H-benzo[7]annulen-7-yl]-3-oxa-6-azabicyclo[3.1.1]heptane] | < 100 | 100 to 1000
Cc1cccnc1-c1ccc(-c2n[nH]c3ncc(-c4ccc5c(c4)CC[C@@H](N4C6COCC4C6)CC5)cc23)nc1 [Example 26, 3-Methyl-6′-{5-[(7S)-7-{3-oxa-6-azabicyclo[3.1.1]heptan-6-yl}-6,7,8,9-tetrahydro-5H-benzo[7]annulen-2-yl]-1H-pyrazolo[3,4-b]pyridin-3-yl}-2,3′-bipyridine] | 100 to 1000 | 100 to 1000
Cc1cc(F)cnc1-c1ccc(-c2c[nH]c3ncc(-c4ccc5c(c4)CC[C@@H](N4C6COCC4C6)CC5)cc23)cc1 [Example 29, 6-[(7S)-3-[3-[4-(5-Fluoro-3-methylpyridin-2-yl)phenyl]-1H-pyrrolo[2,3-b]pyridin-5-yl]-6,7,8,9-tetrahydro-5H-benzo[7]annulen-7-yl]-3-oxa-6-azabicyclo[3.1.1]heptane] | 100 to 1000 | 100 to 1000

Other lines, results leading:

IC50 (recombinant human TYRO3) [nM] | IC50 (recombinant human MER) [nM] | SMILES
< 100 | 100 to 1000 | CS(=O)(=O)c1cccnc1-c1ccc(-c2c[nH]c3ncc(-c4ccc5c(c4)CC[C@@H](N4C6COCC4C6)CC5)cc23)cc1 [Example 102, 6-[(7S)-2-{3-[4-(3-Methanesulfonylpyridin-2-yl)phenyl]-1H-pyrrolo[2,3-b]pyridin-5-yl}-6,7,8,9-tetrahydro-5H-benzo[7]annulen-7-yl]-3-oxa-6-azabicyclo[3.1.1]heptane]
< 100 | < 100 | Cc1cccnc1-c1ccc(-c2c[nH]c3ncc(-c4ccc5c(c4)CC[C@@H](N4CCCC4)CC5)cc23)cc1 [Example 173, 3-Methyl-2-(4-{5-[(7S)-7-(pyrrolidin-1-yl)-6,7,8,9-tetrahydro-5H-benzo[7]annulen-2-yl]-1H-pyrrolo[2,3-b]pyridin-3-yl}phenyl)pyridine]
< 100 | < 100 | Cc1cccnc1-c1ccc(-c2n[nH]c3ncc(-c4ccc5c(c4)CC[C@@H](N4C[C@@H]6C[C@H]4CO6)CC5)cc23)cc1 [Example 130, (1S,4S)-5-[(7S)-2-{3-[4-(3-Methylpyridin-2-yl)phenyl]-1H-pyrazolo[3,4-b]pyridin-5-yl}-6,7,8,9-tetrahydro-5H-benzo[7]annulen-7-yl]-2-oxa-5-azabicyclo[2.2.1]heptane]
< 100 | 100 to 1000 | O=C1CCCN1c1cccnc1-c1ccc(-c2c[nH]c3ncc(-c4ccc5c(c4)CC[C@@H](N4C6COCC4C6)CC5)cc23)cc1 [Example 7, 1-[2-(4-{5-[(7S)-7-{3-Oxa-6-azabicyclo[3.1.1]heptan-6-yl}-6,7,8,9-tetrahydro-5H-benzo[7]annulen-2-yl]-1H-pyrrolo[2,3-b]pyridin-3-yl}phenyl)pyridin-3-yl]pyrrolidin-2-one]
< 100 | 100 to 1000 | c1cnc(-c2ccc(-c3c[nH]c4ncc(-c5ccc6c(c5)CC[C@@H](N5C7COCC5C7)CC6)cc34)cc2)c(N2CCOCC2)c1 [Example 5, 6-[(7S)-2-(3-{4-[3-(Morpholin-4-yl)pyridin-2-yl]phenyl}-1H-pyrrolo[2,3-b]pyridin-5-yl)-6,7,8,9-tetrahydro-5H-benzo[7]annulen-7-yl]-3-oxa-6-azabicyclo[3.1.1]heptane]
< 100 | 100 to 1000 | CC(C)(O)c1cccnc1-c1ccc(-c2n[nH]c3ncc(-c4ccc5c(c4)CC[C@@H](N4C6COCC4C6)CC5)cc23)cc1 [Example 10, 2-[2-(4-{5-[(7S)-7-{3-Oxa-6-azabicyclo[3.1.1]heptan-6-yl}-6,7,8,9-tetrahydro-5H-benzo[7]annulen-2-yl]-1H-pyrazolo[3,4-b]pyridin-3-yl}phenyl)pyridin-3-yl]propan-2-ol]
< 100 | < 100 | Cn1cnnc1-c1ccc(-c2n[nH]c3ncc(-c4ccc5c(c4)CC[C@@H](N4C6COCC4C6)CC5)cc23)cc1 [Example 169, 6-[(7S)-2-{3-[4-(4-Methyl-4H-1,2,4-triazol-3-yl)phenyl]-1H-pyrazolo[3,4-b]pyridin-5-yl}-6,7,8,9-tetrahydro-5H-benzo[7]annulen-7-yl]-3-oxa-6-azabicyclo[3.1.1]heptane]
